Assay results published in PubChem BioAssay AID1963843 (Molecular Pharmacology Branch, DTP, NCI, 2024).

Test system: 616215-338-R-J1-PDC complex spheroid viability
Test: Anticancer human tumor 616215-338-R-J1-PDC patient-derived colon adenocarcinoma cell line growth inhibition [POLQ]
Settings: for IC50: curve of first compound; for viability, T/C: stronger effect = lower value
How it was run: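 Complex spheroid viability model combining PDC tumour cells with endothelial (HUVEC) and MSC stromal cells. Novobiocin, ART-558 or RP6685 were tested singly and in combination with standard and investigational anticancer drugs. Each was titrated in half-log steps from near clinical Cmax, or from 10 microM where Cmax was unknown.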

[1] = second compound 0.0316 µM, first compound 0.00316 µM
[2] = second compound 0.0316 µM, first compound 0.01 µM
[3] = second compound 0.0316 µM, first compound 0.0316 µM
[4] = second compound 0.0316 µM, first compound 0.1 µM
[5] = second compound 0.0316 µM, first compound 0.316 µM
[6] = second compound 0.0316 µM, first compound 1 µM
[7] = second compound 0.1 µM, first compound 0.00316 µM
[8] = second compound 0.1 µM, first compound 0.01 µM
[9] = second compound 0.1 µM, first compound 0.0316 µM
[10] = second compound 0.1 µM, first compound 0.1 µM
[11] = second compound 0.1 µM, first compound 0.316 µM
[12] = second compound 0.1 µM, first compound 1 µM
[13] = second compound 0.316 µM, first compound 0.00316 µM
[14] = second compound 0.316 µM, first compound 0.01 µM
[15] = second compound 0.316 µM, first compound 0.0316 µM
[16] = second compound 0.316 µM, first compound 0.1 µM
[17] = second compound 0.316 µM, first compound 0.316 µM
[18] = second compound 0.316 µM, first compound 1 µM
[19] = second compound 1 µM, first compound 0.00316 µM
[20] = second compound 1 µM, first compound 0.01 µM
[21] = second compound 1 µM, first compound 0.0316 µM
[22] = second compound 1 µM, first compound 0.1 µM
[23] = second compound 1 µM, first compound 0.316 µM
[24] = second compound 1 µM, first compound 1 µM
[25] = second compound 3.16 µM, first compound 0.00316 µM
[26] = second compound 3.16 µM, first compound 0.01 µM
[27] = second compound 3.16 µM, first compound 0.0316 µM
[28] = second compound 3.16 µM, first compound 0.1 µM
[29] = second compound 3.16 µM, first compound 0.316 µM
[30] = second compound 3.16 µM, first compound 1 µM
[31] = second compound 10 µM, first compound 0.00316 µM
[32] = second compound 10 µM, first compound 0.01 µM
[33] = second compound 10 µM, first compound 0.0316 µM
[34] = second compound 10 µM, first compound 0.1 µM
[35] = second compound 10 µM, first compound 0.316 µM
[36] = second compound 10 µM, first compound 1 µM
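Further: spheroids exposed to compounds for one week before readout.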
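Wherever viability, T/C is given: percent viability relative to DMSO vehicle wells taken as 100%.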

In the case of `COc1cccc(OCCCN)c1-c1cc(Nc2cnc(C#N)cn2)n[nH]1` + Nc1ccc(C#CCN(C(=O)Cc2ncc(C(F)(F)F)cc2C(F)(F)F)c2ccc(F)cc2)nn1, the IC50 (second compound 0.0316 µM) is reported as 136 nM, the IC50 (second compound 0.1 µM) is reported as 78.7 nM and the IC50 (second compound 0.316 µM) is reported as 75.9 nM. The IC50 (second compound 1 µM) was 52.7 nM, the IC50 (second compound 3.16 µM) was 66.1 nM and the IC50 (second compound 10 µM) was 39 nM. For the same molecule, the viability, T/C [1] was 109%, the viability, T/C [2] was 84.9% and the viability, T/C [3] was 91.2%. For the same molecule, the viability, T/C [4] was 53.8%, the viability, T/C [5] was 36.9% and the viability, T/C [6] was 33.1%. The viability, T/C [7] was 101%, the viability, T/C [8] was 102% and the viability, T/C [9] was 77.3%. The viability, T/C [10] was 43%, the viability, T/C [11] was 42.6% and the viability, T/C [12] was 36%. For the same molecule, the viability, T/C [13] was 98.9%, the viability, T/C [14] was 97.2% and the viability, T/C [15] was 71.2%. For the same molecule, the viability, T/C [16] was 43.3%, the viability, T/C [17] was 42.4% and the viability, T/C [18] was 34.7%. It also gave a viability, T/C [19] of 97.5%, a viability, T/C [20] of 96.6% and a viability, T/C [21] of 60.3%. It also gave a viability, T/C [22] of 38.6%, a viability, T/C [23] of 38% and a viability, T/C [24] of 29.4%. The viability, T/C [25] was 103%, the viability, T/C [26] was 90.3% and the viability, T/C [27] was 72.7%. It also gave a viability, T/C [28] of 35.7%, a viability, T/C [29] of 32.9% and a viability, T/C [30] of 29.7%. It also gave a viability, T/C [31] of 91.7%, a viability, T/C [32] of 69.3% and a viability, T/C [33] of 50.2%. The viability, T/C [34] was 41.2%, the viability, T/C [35] was 34.4% and the viability, T/C [36] was 24%.

Work on `Cn1ncnc1[C@H]1c2n[nH]c(=O)c3cc(F)cc(c23)N[C@@H]1c1ccc(F)cc1` + Nc1ccc(C#CCN(C(=O)Cc2ncc(C(F)(F)F)cc2C(F)(F)F)c2ccc(F)cc2)nn1 yielded an IC50 (second compound 0.0316 µM) of over 100 nM, an IC50 (second compound 0.1 µM) of over 100 nM and an IC50 (second compound 0.316 µM) of over 100 nM. For the same molecule, the IC50 (second compound 1 µM) was over 100 nM, the IC50 (second compound 3.16 µM) was over 100 nM and the IC50 (second compound 10 µM) was over 100 nM. It also gave a viability, T/C (second compound 0.0316 µM, first compound 0.000316 µM) of 104%, a viability, T/C (second compound 0.0316 µM, first compound 0.001 µM) of 106% and a viability, T/C [1] of 99.7%. The viability, T/C [2] was 95.1%, the viability, T/C [3] was 88.5% and the viability, T/C [4] was 86.7%. It also gave a viability, T/C (second compound 0.1 µM, first compound 0.000316 µM) of 112%, a viability, T/C (second compound 0.1 µM, first compound 0.001 µM) of 91.6% and a viability, T/C [7] of 107%. For the same molecule, the viability, T/C [8] was 113%, the viability, T/C [9] was 108% and the viability, T/C [10] was 77.6%. The viability, T/C (second compound 0.316 µM, first compound 0.000316 µM) was 106%, the viability, T/C (second compound 0.316 µM, first compound 0.001 µM) was 97.3% and the viability, T/C [13] was 111%. It also gave a viability, T/C [14] of 97.2%, a viability, T/C [15] of 104% and a viability, T/C [16] of 83%. For the same molecule, the viability, T/C (second compound 1 µM, first compound 0.000316 µM) was 108%, the viability, T/C (second compound 1 µM, first compound 0.001 µM) was 99.9% and the viability, T/C [19] was 110%. For the same molecule, the viability, T/C [20] was 93.9%, the viability, T/C [21] was 91.2% and the viability, T/C [22] was 77.6%. For the same molecule, the viability, T/C (second compound 3.16 µM, first compound 0.000316 µM) was 99.4%, the viability, T/C (second compound 3.16 µM, first compound 0.001 µM) was 98% and the viability, T/C [25] was 103%. It also gave a viability, T/C [26] of 90.5%, a viability, T/C [27] of 99.3% and a viability, T/C [28] of 95.7%. It also gave a viability, T/C (second compound 10 µM, first compound 0.000316 µM) of 94.8%, a viability, T/C (second compound 10 µM, first compound 0.001 µM) of 98.7% and a viability, T/C [31] of 101%. The viability, T/C [32] was 90.9%, the viability, T/C [33] was 89.9% and the viability, T/C [34] was 65.1%.

`O=C(c1cc(Cc2n[nH]c(=O)c3ccccc23)ccc1F)N1CCN(C(=O)C2CC2)CC1` + Nc1ccc(C#CCN(C(=O)Cc2ncc(C(F)(F)F)cc2C(F)(F)F)c2ccc(F)cc2)nn1 gave an IC50 (second compound 0.0316 µM) of over 10000 nM, an IC50 (second compound 0.1 µM) of over 10000 nM and an IC50 (second compound 0.316 µM) of 8940 nM. For the same molecule, the IC50 (second compound 1 µM) was over 10000 nM, the IC50 (second compound 3.16 µM) was over 10000 nM and the IC50 (second compound 10 µM) was 9490 nM. It also gave a viability, T/C [3] of 102%, a viability, T/C [4] of 99% and a viability, T/C [5] of 113%. It also gave a viability, T/C [6] of 99.9%, a viability, T/C (second compound 0.0316 µM, first compound 3.16 µM) of 88.5% and a viability, T/C (second compound 0.0316 µM, first compound 10 µM) of 55.5%. The viability, T/C [9] was 110%, the viability, T/C [10] was 94.7% and the viability, T/C [11] was 104%. For the same molecule, the viability, T/C [12] was 94.1%, the viability, T/C (second compound 0.1 µM, first compound 3.16 µM) was 88.6% and the viability, T/C (second compound 0.1 µM, first compound 10 µM) was 66.9%. It also gave a viability, T/C [15] of 105%, a viability, T/C [16] of 103% and a viability, T/C [17] of 92.6%. It also gave a viability, T/C [18] of 88.3%, a viability, T/C (second compound 0.316 µM, first compound 3.16 µM) of 102% and a viability, T/C (second compound 0.316 µM, first compound 10 µM) of 44.8%. The viability, T/C [21] was 99.8%, the viability, T/C [22] was 97.6% and the viability, T/C [23] was 94.4%. For the same molecule, the viability, T/C [24] was 103%, the viability, T/C (second compound 1 µM, first compound 3.16 µM) was 80% and the viability, T/C (second compound 1 µM, first compound 10 µM) was 55%. It also gave a viability, T/C [27] of 112%, a viability, T/C [28] of 107% and a viability, T/C [29] of 99.6%. The viability, T/C [30] was 93.3%, the viability, T/C (second compound 3.16 µM, first compound 3.16 µM) was 98.1% and the viability, T/C (second compound 3.16 µM, first compound 10 µM) was 54.1%. For the same molecule, the viability, T/C [33] was 96.3%, the viability, T/C [34] was 88.7% and the viability, T/C [35] was 80.7%. It also gave a viability, T/C [36] of 79.7%, a viability, T/C (second compound 10 µM, first compound 3.16 µM) of 81.3% and a viability, T/C (second compound 10 µM, first compound 10 µM) of 47.9%.
